Test results as given in the NIST ThermoML archive (doi:10.1016/j.jct.2016.11.007).
Numbers after ± are expanded uncertainties.

Experiment: mn = molality of the nth substance listed, in mol/kg
Details: Liquid, Alternating current cell with electrodes

OB(O)O [boric acid] + O
Details	electrical conductivity [S/m]
298.15 K, 19767 kPa, m1 = 0.000461	2.9e-05 ± 2.2e-05
298.15 K, 19767 kPa, m1 = 0.001034	4.34e-05 ± 2.2e-05
298.15 K, 19767 kPa, m1 = 0.002214	7.29e-05 ± 2.2e-05
298.15 K, 19767 kPa, m1 = 0.003558	8.46e-05 ± 2.3e-05
298.15 K, 19767 kPa, m1 = 0.006801	0.000104 ± 2.3e-05
298.15 K, 19767 kPa, m1 = 0.01448	0.000141 ± 1.5e-05
298.15 K, 19767 kPa, m1 = 0.03227	0.000203 ± 2.9e-05
298.15 K, 19767 kPa, m1 = 0.05626	0.000261 ± 5e-05
298.15 K, 19767 kPa, m1 = 0.1313	0.000513 ± 3.1e-05
373.33 K, 19683 kPa, m1 = 0.002216	0.000155 ± 9.3e-06
373.33 K, 19683 kPa, m1 = 0.01449	0.000175 ± 3.5e-05
373.33 K, 19683 kPa, m1 = 0.02381	0.000262 ± 1.6e-05
373.33 K, 19683 kPa, m1 = 0.04334	0.000409 ± 2.5e-05
373.33 K, 19683 kPa, m1 = 0.07421	0.000597 ± 3.6e-05
448.23 K, 19666 kPa, m1 = 0.0004623	0.000302 ± 1.8e-05
448.23 K, 19666 kPa, m1 = 0.00294	0.000347 ± 2.1e-05
448.23 K, 19666 kPa, m1 = 0.00873	0.000421 ± 2.5e-05
448.23 K, 19666 kPa, m1 = 0.01287	0.000473 ± 2.9e-05
448.23 K, 19666 kPa, m1 = 0.0243	0.00059 ± 3.6e-05
448.23 K, 19666 kPa, m1 = 0.03791	0.000706 ± 4.2e-05
448.23 K, 19666 kPa, m1 = 0.07013	0.000939 ± 5.7e-05
448.23 K, 19666 kPa, m1 = 0.1015	0.00114 ± 6.8e-05
523.32 K, 19674 kPa, m1 = 0.0005523	0.000382 ± 2.3e-05
523.32 K, 19674 kPa, m1 = 0.001757	0.000393 ± 2.4e-05
523.32 K, 19674 kPa, m1 = 0.004534	0.000408 ± 2.4e-05
523.32 K, 19674 kPa, m1 = 0.009517	0.000445 ± 2.7e-05
523.32 K, 19674 kPa, m1 = 0.02168	0.000515 ± 3.1e-05
523.32 K, 19674 kPa, m1 = 0.04237	0.000632 ± 3.8e-05
523.32 K, 19674 kPa, m1 = 0.07216	0.00078 ± 4.7e-05
523.32 K, 19674 kPa, m1 = 0.1017	0.000922 ± 5.5e-05
547.2 K, 20900 kPa, m1 = 0.0009361	0.000382 ± 2.3e-05
547.2 K, 20900 kPa, m1 = 0.002371	0.000395 ± 2.4e-05
547.2 K, 20900 kPa, m1 = 0.003744	0.000405 ± 2.5e-05
547.2 K, 20900 kPa, m1 = 0.00586	0.000419 ± 2.6e-05
547.2 K, 20900 kPa, m1 = 0.008845	0.000439 ± 5.1e-05
547.2 K, 20900 kPa, m1 = 0.01163	0.000459 ± 5.2e-05
547.2 K, 20900 kPa, m1 = 0.01515	0.000481 ± 5.1e-05
547.2 K, 20900 kPa, m1 = 0.02429	0.000535 ± 3.2e-05
548.35 K, 19600 kPa, m1 = 0.0008359	0.000374 ± 2.5e-05
548.35 K, 19600 kPa, m1 = 0.002368	0.000385 ± 2.5e-05
548.35 K, 19600 kPa, m1 = 0.005537	0.000406 ± 2.7e-05
548.35 K, 19600 kPa, m1 = 0.01208	0.000447 ± 2.7e-05
548.35 K, 19600 kPa, m1 = 0.02063	0.000495 ± 3e-05
548.35 K, 19600 kPa, m1 = 0.0288	0.000538 ± 3.2e-05
548.35 K, 19600 kPa, m1 = 0.04625	0.000617 ± 3.7e-05
548.35 K, 19600 kPa, m1 = 0.1015	0.000921 ± 5.5e-05
571.07 K, 19463 kPa, m1 = 0.000429	0.000323 ± 2.2e-05
571.07 K, 19463 kPa, m1 = 0.001139	0.000331 ± 2.2e-05
571.07 K, 19463 kPa, m1 = 0.004203	0.00035 ± 2.3e-05
572.82 K, 20769 kPa, m1 = 0.0002704	0.000339 ± 2.1e-05
572.82 K, 20769 kPa, m1 = 0.0005746	0.000349 ± 2.1e-05
572.82 K, 20769 kPa, m1 = 0.001483	0.000358 ± 2.2e-05
572.82 K, 20769 kPa, m1 = 0.00287	0.000369 ± 2.2e-05
572.82 K, 20769 kPa, m1 = 0.006337	0.000389 ± 2.3e-05
572.82 K, 20769 kPa, m1 = 0.01032	0.000414 ± 2.5e-05
572.82 K, 20769 kPa, m1 = 0.01719	0.000445 ± 2.7e-05
572.82 K, 20769 kPa, m1 = 0.0361	0.000516 ± 3.1e-05
572.82 K, 20769 kPa, m1 = 0.05276	0.000569 ± 3.4e-05
597.9 K, 20618 kPa, m1 = 0.0004999	0.000217 ± 2.6e-05
597.9 K, 20618 kPa, m1 = 0.0008991	0.000223 ± 2.7e-05
597.9 K, 20618 kPa, m1 = 0.001756	0.000227 ± 2.7e-05
597.9 K, 20618 kPa, m1 = 0.003156	0.000233 ± 2.8e-05
597.9 K, 20618 kPa, m1 = 0.00593	0.000242 ± 2.9e-05
597.9 K, 20618 kPa, m1 = 0.01032	0.000257 ± 3.1e-05
597.9 K, 20618 kPa, m1 = 0.02561	0.000303 ± 3.6e-05
621.13 K, 20620 kPa, m1 = 0.0003582	0.000117 ± 1.4e-05
621.13 K, 20620 kPa, m1 = 0.0009385	0.000117 ± 1.4e-05
621.13 K, 20620 kPa, m1 = 0.002851	0.00012 ± 1.4e-05
621.13 K, 20620 kPa, m1 = 0.00498	0.000125 ± 1.5e-05
621.13 K, 20620 kPa, m1 = 0.01107	0.000138 ± 1.7e-05
621.13 K, 20620 kPa, m1 = 0.01908	0.000161 ± 1.9e-05
